# Reference: patent publication US8012956B2, “Tropane compounds” (Exelixis, Inc., priority 2007, dated 2011)
# Biological target: HSP90 (Homo sapiens, UniProt P07900)
# Test: HSP90 inhibition (HSP90 IC50)
# Assay type: biochemical
row,SMILES,IC50 [nM]
1,"Cc1cc(C(N)=O)c(NC(C)C)cc1C(=O)N[C@H]1C[C@H]2CC[C@@H](C1)N2c1ccc(C(=O)C2CC2)cn1 [N-{8-[5-(cyclopropylcarbonyl)pyridin-2-yl]-8-azabicyclo[3.2.1]oct-3-endo-yl}-2-methyl-5-[(1-methylethyl)amino]benzene-1,4-dicarboxamide]",< 500
2,"Cc1cc(C(N)=O)c(NC(C)CC(F)(F)F)cc1C(=O)N[C@H]1C[C@H]2CC[C@@H](C1)N2c1ccc(C(=O)C2CC2)cn1 (stereo partly drawn) [N-{8-[5-(cyclopropylcarbonyl)pyridin-2-yl]-8-azabicyclo[3.2.1]oct-3-endo-yl}-2-methyl-5-[(3,3,3-trifluoro-1-methylpropyl)amino]benzene-1,4-dicarboxamide]",< 500
3,"Cc1cc(C(N)=O)c(NCCC(F)(F)F)cc1C(=O)N[C@H]1C[C@H]2CC[C@@H](C1)N2c1ccc(C(=O)C2CC2)cn1 [N-{8-[5-(cyclopropylcarbonyl)pyridin-2-yl]-8-azabicyclo[3.2.1]oct-3-endo-yl}-2-methyl-5-[(3,3,3-trifluoropropyl)amino]benzene-1,4-dicarboxamide]",< 500
4,"Cc1cc(C(N)=O)c(N[C@H]2CCOC2)cc1C(=O)NC1CC2CCC(C1)N2c1ccc(C(=O)C2CC2)cn1 (stereo partly drawn) [N-{8-[5-(cyclopropylcarbonyl)pyridin-2-yl]-8-azabicyclo[3.2.1]oct-3-endo-yl}-2-methyl-5-[(3S)-tetrahydrofuran-3-ylamino]benzene-1,4-dicarboxamide]",< 500
5,"Cc1cc(C(N)=O)c(NC(C)C2(C)CC2)cc1C(=O)N[C@H]1C[C@H]2CC[C@@H](C1)N2c1ccc(C(=O)C2CC2)cn1 (stereo partly drawn) [N-{8-[5-(cyclopropylcarbonyl)pyridin-2-yl]-8-azabicyclo[3.2.1]oct-3-endo-yl}-2-methyl-5-{[1-(1-methylcyclopropyl)ethyl]amino}benzene-1,4-dicarboxamide]",< 500
6,"COCCOc1cc(C(=O)N[C@H]2C[C@H]3CC[C@@H](C2)N3c2ccc(C(=O)C3CC3)cn2)c(C)cc1C(N)=O [N-{8-[5-(cyclopropylcarbonyl)pyridin-2-yl]-8-azabicyclo[3.2.1]oct-3-endo-yl}-2-methyl-5-{[2-(methyloxy)ethyl]oxy}benzene-1,4-dicarboxamide]",500 to 999
7,"Cc1cc(C(N)=O)c(NC(C(C)C)C(C)C)cc1C(=O)N[C@H]1C[C@H]2CC[C@@H](C1)N2c1ccc(C(=O)C2CC2)cn1 [N-{8-[5-(cyclopropylcarbonyl)pyridin-2-yl]-8-azabicyclo[3.2.1]oct-3-endo-yl}-2-methyl-5-{[2-methyl-1-(1-methylethyl)propyl]amino}benzene-1,4-dicarboxamide]",< 500
8,"Cc1cc(C(N)=O)c(NC(C(C)C)C(F)(F)F)cc1C(=O)N[C@H]1C[C@H]2CC[C@@H](C1)N2c1ccc(C(=O)C2CC2)cn1 (stereo partly drawn) [N-{8-[5-(cyclopropylcarbonyl)pyridin-2-yl]-8-azabicyclo[3.2.1]oct-3-endo-yl}-2-methyl-5-{[2-methyl-1-(trifluoromethyl)propyl]amino}benzene-1,4-dicarboxamide]",< 500
9,"Cc1cc(C(N)=O)c(N[C@H](C)C(C)(C)C)cc1C(=O)NC1CC2CCC(C1)N2c1ccc(C(=O)C2CC2)cn1 (stereo partly drawn) [N-{8-[5-(cyclopropylcarbonyl)pyridin-2-yl]-8-azabicyclo[3.2.1]oct-3-endo-yl}-2-methyl-5-{[(1R)-1,2,2-trimethylpropyl]amino}benzene-1,4-dicarboxamide]",< 500
10,"CC[C@@H](C)Nc1cc(C(=O)NC2CC3CCC(C2)N3c2ccc(C(=O)C3CC3)cn2)c(C)cc1C(N)=O (stereo partly drawn) [N-{8-[5-(cyclopropylcarbonyl)pyridin-2-yl]-8-azabicyclo[3.2.1]oct-3-endo-yl}-2-methyl-5-{[(1R)-1-methylpropyl]amino}benzene-1,4-dicarboxamide]",< 500
11,"Cc1cc(C(N)=O)c(NC(C)(C)C)cc1C(=O)N[C@H]1C[C@H]2CC[C@@H](C1)N2c1ccc(C(=O)C2CC2)cn1 [N-{8-[5-(cyclopropylcarbonyl)pyridin-2-yl]-8-azabicyclo[3.2.1]oct-3-endo-yl}-5-[(1,1-dimethylethyl)amino]-2-methylbenzene-1,4-dicarboxamide]",< 500
12,"CCC(Nc1cc(C(=O)N[C@H]2C[C@H]3CC[C@@H](C2)N3c2ccc(C(=O)C3CC3)cn2)c(C)cc1C(N)=O)C(C)C (stereo partly drawn) [N-{8-[5-(cyclopropylcarbonyl)pyridin-2-yl]-8-azabicyclo[3.2.1]oct-3-endo-yl}-5-[(1-ethyl-2-methylpropyl)amino]-2-methylbenzene-1,4-dicarboxamide]",< 500
13,"CCC(CC)Nc1cc(C(=O)N[C@H]2C[C@H]3CC[C@@H](C2)N3c2ccc(C(=O)C3CC3)cn2)c(F)cc1C(N)=O [N-{8-[5-(cyclopropylcarbonyl)pyridin-2-yl]-8-azabicyclo[3.2.1]oct-3-endo-yl}-5-[(1-ethylpropyl)amino]-2-fluorobenzene-1,4-dicarboxamide]",< 500
14,"Cc1cc(C(N)=O)c(NC(C)C(F)F)cc1C(=O)N[C@H]1C[C@H]2CC[C@@H](C1)N2c1ccc(C(=O)C2CC2)cn1 (stereo partly drawn) [N-{8-[5-(cyclopropylcarbonyl)pyridin-2-yl]-8-azabicyclo[3.2.1]oct-3-endo-yl}-5-[(2,2-difluoro-1-methylethyl)amino]-2-methylbenzene-1,4-dicarboxamide]",< 500
15,"Cc1cc(C(N)=O)c(NC(C2CC2)C2CC2)cc1C(=O)NC1CC2CCC(C1)N2c1ccc(C(=O)C2CC2)cn1 (stereo not drawn) [N-{8-[5-(cyclopropylcarbonyl)pyridin-2-yl]-8-azabicyclo[3.2.1]oct-3-endo-yl}-5-[(dicyclopropylmethyl)amino]-2-methylbenzene-1,4-dicarboxamide]",< 500
16,"CCc1cc(C(=O)N[C@H]2C[C@H]3CC[C@@H](C2)N3c2ccc(C(=O)C3CC3)cn2)c(C)cc1C(N)=O [N-{8-[5-(cyclopropylcarbonyl)pyridin-2-yl]-8-azabicyclo[3.2.1]oct-3-endo-yl}-5-ethyl-2-methylbenzene-1,4-dicarboxamide]",< 500
17,"Cc1cc(C(N)=O)c(NC(CF)CF)cc1C(=O)N[C@H]1C[C@H]2CC[C@@H](C1)N2c1ccc(C(=O)C2CC2)cn1 [N-{8-[5-(cyclopropylcarbonyl)pyridin-2-yl]-8-azabicyclo[3.2.1]oct-3-endo-yl}-5-{[2-fluoro-1-(fluoromethyl)ethyl]amino}-2-methylbenzene-1,4-dicarboxamide]",< 500
18,"Cc1cc(C(N)=O)c(N[C@H](C)C(C)C)cc1C(=O)NC1CC2CCC(C1)N2c1ccc(C(=O)C2CC2)cn1 (stereo partly drawn) [N-{8-[5-(cyclopropylcarbonyl)pyridin-2-yl]-8-azabicyclo[3.2.1]oct-3-endo-yl}-5-{[(1R)-1,2-dimethylpropyl]amino}-2-methylbenzene-1,4-dicarboxamide]",< 500
19,"CC[C@@H](C)Nc1cc(C(=O)NC2CC3CCC(C2)N3c2ccc(C(=O)C3CC3)cn2)c(C(F)(F)F)cc1C(N)=O (stereo partly drawn) [N-{8-[5-(cyclopropylcarbonyl)pyridin-2-yl]-8-azabicyclo[3.2.1]oct-3-endo-yl}-5-{[(1R)-1-methylpropyl]amino}-2-(trifluoromethyl)benzene-1,4-dicarboxamide]",< 500
20,NC(=O)c1ccc(C(=O)N[C@H]2C[C@H]3CC[C@@H](C2)N3c2ccc(C(=O)C3CC3)cn2)s1 [N-{8-[5-(cyclopropylcarbonyl)pyridin-2-yl]-8-azabicyclo[3.2.1]oct-3-endo-yl}thiophene-2.5-dicarboxamide],1000 to 2000
